According to US5936097A, “4,9-ethano-benzo(F)isoindole derivatives as farnesyl transferase inhibitors” (Rhone-Poulenc Rorer, S.A., priority 1995, dated 1999):
pIC50: −log10 of the molar value. Structures can show the parent of a compound that is named as a salt.

The compounds below were run against T1, human farnesyl transferase (Homo sapiens, UniProt P49354+P49356) (assay: inhibition of farnesyl transferase ((3H) farnesyl transfer from (3H) FPP to p21 H-ras)). Conditions: human farnesyl transferase purified from THP1 cell cultures; p21 H-ras substrate; 20 minutes at 37° C.; 9 concentrations; read-out: in vitro inhibitory activity IC50.
T1 construct: human farnesyl transferase purified from THP1 cell cultures; endogenous in cells; host or cells: THP1 cell cultures (enzyme purified from the cells)
Assay type: biochemical
Procedure: Farnesyl transferase activity is determined by the amount of (^3 H) farnesyl transferred from (^3 H) farnesylpyrophosphate [(^3 H) FPP] to the p21 H-ras protein. The standard reaction mixture is composed, for a final volume of […], of 50 mM Tris-HCl, 5 mM MgCl2, 5 mM dithiotreitol, 0.2% octyl b-D-glucopyranoside, 200 picomol p21 H-ras, 4.5 picomol (^3 H) FPP (activity 61000 dpm/picomol).
Reaction is initiated by adding approximately 5 ng of human farnesyl transferase purified from THP1 cell cultures. After incubation for 20 minutes at 37° C. in a microtitration plate containing 96 1-cm^3 wells per plate (Titer Plate®, Beckman), the reaction is stopped by adding 0.4 cm^3 of 0.1% SDS in methanol at 0° C. The mixture is then treated with 0.4 cm^3 of 30% trichloroacetic® acid (TCA) in methanol. The plates are left in ice for 1 hour. The precipitated contents are then retained on Filtermat®, Pharmacia), glass® fibre membranes with the filtration unit (Combi Cell Harvester®, Skatron), and rinsed with 6% trichloroacetic acid in distilled water. The membranes are dried in a microwave oven, then impregnated with scintillation medium by melting of Meltilex® (Pharmacia) under hot air, and lastly counted in cpm in a b-Plate counter® (LKB). Each test is repeated 3 times.
The unit of activity is defined as 1 picomole of (^3 H) FPP transferred to p21 H-ras in 20 minutes.
The percentage inhibition values are obtained by comparison of the tests with and without inhibitor after deduction of blanks, the IC50 values being measured on the basis of the inhibitions obtained with 9 different concentrations using Enzfitter® or Grafit® software.

pIC50	SMILES
6.11	C=C(C(=O)N1C[C@H]2[C@@]3(c4ccccc4)CC[C@H](c4ccccc43)[C@@]2(C(=O)NCc2cccc(C(F)(F)F)c2)C1)c1ccccc1OC [Example 89, (3aS,4R,9R,9aS)-N-[3-trifluorobenzyl]-4,9-ethano-2-[(2-methoxyphenyl)prop-2-en-1-oyl]-9-phenyl-2,3,3a,4,9,9a-hexahydro-1H-benzo[f]isoindole-3a-carboxamide]
5.04	COC(=O)CNC(=O)[C@]12CN(C(=O)Cc3ccccc3OC)C[C@H]1[C@@]1(c3ccccc3)CC[C@@H]2c2ccccc21 (relative stereo) [Example 69, methyl ester of N-[(3aRS,4SR,9SR,9aRS)-4,9-ethano-2-(2-methoxyphenyl)acetyl-9-phenyl-2,3,3a,4,9,9a-hexahydro-1H-benzo[f]isoindol-3a-yl]carbonylglycine]
6.80	C=C(C(=O)N1C[C@H]2[C@@]3(c4ccccc4)CC[C@H](c4ccccc43)[C@@]2(C(=O)NCc2cccnc2)C1)c1ccccc1OC [Example 91, (3aS,4R,9R,9aS)-N-[(3-pyridyl)methyl]-4,9-ethano-2-[(2-methoxyphenyl)prop-2-en-1-oyl]-9-phenyl-2,3,3a,4,9,9a-hexahydro-1H-benzo[f]isoindole-3a-carboxamide]
5.25	COc1ccccc1CC(=O)N1C[C@H]2[C@@]3(c4ccccc4)CC[C@H](c4ccccc43)[C@@]2(CC(=O)O)C1 (relative stereo) [Example 19, (3aRS, 4SR, 9SR, 9aRS)-4,9-ethano-2-(2-methoxyphenyl)acetyl-9-phenyl-2,3,3a,4,9,9a-hexahydro-1H-benzo[f]isoindol-3a-acetic acid]
5.03	COc1ccccc1CC(=O)N1C[C@H]2[C@@]3(c4ccccc4)CC[C@H](c4ccccc43)[C@@]2(C(=O)NCCN(C)C)C1 (relative stereo) [Example 4, (3aRS, 4SR, 9SR, 9aRS)-N-(2-dimethylaminoethyl)-4,9-ethano-2-(2-methoxyphenyl)acetyl-9-phenyl-2,3,3a,4,9,9a-hexahydro-1H-benzo[f]isoindole-3a-carboxamide]
5.96	COc1ccccc1C1(C(=O)N2C[C@@H]3[C@]4(c5ccccc5)CC[C@@H](c5ccccc54)[C@]3(C(=O)O)C2)CC1 (racemic) [Example 41, (3aRS,4SR,9SR,9aRS)-4,9-ethano-2-[1-(2-methoxyphenyl)-cyclopropan-1-oyl]-9-phenyl-2,3,3a,4,9,9a-hexa-hydro-1H-benzo[f]isoindole-3a-carboxylic acid]
6.44	C=C(C(=O)N1C[C@H]2[C@@]3(c4ccccc4)CC[C@H](c4ccccc43)[C@@]2(C(=O)NCc2cscn2)C1)c1ccccc1OC [Example 96, (3aS,4R,9R,9aS)-N-[(4-thiazolyl)-methyl]-4,9-ethano-2-[(2-methoxyphenyl)prop-2-en-1-oyl]-9-phenyl-2,3,3a,4,9,9a-hexahydro-1H-benzo[f]isoindole-3a-carboxamide]
6.72	COc1ccccc1CC(=O)N1C[C@H]2[C@@]3(c4ccccc4)CC[C@H](c4ccccc43)[C@@]2(C(=O)NC(Cc2c[nH]cn2)C(=O)O)C1 (stereo partly drawn) [Example 8, hydrochloride of N-[(3aRS, 4SR, 9SR, 9aRS)-4,9-ethano-2-(2-methoxyphenyl)acetyl-9-phenyl-2,3,3a,4,9,9a-hexahydro-1H-benzo[f]isoindolyl-3a-carbonyl]histidine]
5.38	COc1ccccc1CC(=O)N1C[C@H]2[C@@]3(c4ccccc4)CC[C@H](c4ccccc43)[C@@]2(CC(C(=O)O)C(=O)O)C1 (relative stereo) [Example 24, 2-{(3aRS, 4SR, 9SR, 9aRS)-4,9-ethano-[(2-methoxyphenyl)acetyl]-9-phenyl-1,2,3,3a,9,9a-hexahydro-1H-benzo[f]isoindole-3a-}-methylmalonic acid]

SMILES	pIC50
CC(=O)Oc1ccccc1CC(=O)N1C[C@H]2[C@@]3(c4ccccc4)CC[C@H](c4ccccc43)[C@@]2(C(=O)O)C1 (relative stereo) [Example 29, (3aRS, 4SR, 9SR, 9aRS)-4,9-ethano-2-(2-acetoxyphenyl)acetyl-9-phenyl-2,3,3a,4,9,9a-hexahydro-1H-benzo[f]isoindole-3a-carboxylic acid]	5.64
